Measurements from US10336762B2 (priority 2017, dated 2019).
Read-outs that look alike come from different tables or passages of the source.

Legend:
[1] = system: TNFα; experiment: cells; format: cell-based, human; settings: LPS-stimulated human monocytes, read-out: EC50 TNF
[2] = molecular target: IRAK4 enzyme (Homo sapiens (Human), UniProt Q9NWZ3); experiment: biochemical; format: biochemical; settings: IRAK4 enzyme, 500 μM ATP
[3] = Homo sapiens, Monocyte, TNFα content
[4] = Homo sapiens, Monocyte, TNFα by TR-FRET

Sequence of IRAK4 enzyme (Q9NWZ3 whole entry): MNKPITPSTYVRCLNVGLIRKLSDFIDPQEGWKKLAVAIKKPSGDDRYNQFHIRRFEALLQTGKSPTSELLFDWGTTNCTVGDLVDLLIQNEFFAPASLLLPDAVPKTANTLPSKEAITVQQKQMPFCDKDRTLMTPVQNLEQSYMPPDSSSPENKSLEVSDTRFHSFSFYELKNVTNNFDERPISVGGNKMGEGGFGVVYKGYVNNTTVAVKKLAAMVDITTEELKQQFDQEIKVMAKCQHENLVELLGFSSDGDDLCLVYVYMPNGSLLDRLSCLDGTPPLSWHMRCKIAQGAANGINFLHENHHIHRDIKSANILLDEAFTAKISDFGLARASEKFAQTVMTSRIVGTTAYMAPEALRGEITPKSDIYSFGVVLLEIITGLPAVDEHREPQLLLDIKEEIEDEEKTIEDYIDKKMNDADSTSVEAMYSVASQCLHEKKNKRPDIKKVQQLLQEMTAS

CC(C)(C)OC(=O)NC[C@H]1C[C@H](Nc2cc(-c3ccc4cc(C#N)cnn34)ncc2C(=O)NC[C@@H](F)C(C)(C)O)C1 [Example 549, tert-butyl (((1R,3r)-3-((2-(3-cyanopyrrolo[1,2-b]pyridazin-7-yl)-5-(((R)-2-fluoro-3-hydroxy-3-methylbutyl)carbamoyl)pyridin-4-yl)amino)cyclobutyl)methyl)carbamate]
EC50 [1, 3]: 149 nM | IC50 ([2]; TR-FRET (HTRF)): 2 nM

CN1CCC[C@@H](Nc2cc(-c3ccc4cc(C#N)cnn34)ncc2C(=O)NC[C@@H](F)C(C)(C)O)C1 [Example 259, 6-(3-cyanopyrrolo[1,2-b]pyridazin-7-yl)-N-((R)-2-fluoro-3-hydroxy-3-methylbutyl)-4-(((R)-1-methylpiperidin-3-yl)amino)nicotinamide]
EC50 [1, 3]: 152 nM | IC50 ([2]; TR-FRET): 6 nM

CC(C)(O)[C@H](F)CNC(=O)c1cnc(-c2ccc3cc(C#N)cnn23)cc1N[C@@H]1CC[C@@H](N)C1 [Example 308, 4-(((1R,3R)-3-aminocyclopentyl)amino)-6-(3-cyano-pyrrolo[1,2-b]pyridazin-7-yl)-N-((R)-2-fluoro-3-hydroxy-3-methylbutyl) nicotinamide]
EC50 [1, 3]: 46 nM | IC50 ([2]; TR-FRET): < 1 nM

CC(C)Nc1cc(-c2ccc3cc(-c4nnn[nH]4)cnn23)ncc1C(=O)NC[C@@H](F)C(C)(C)O [Example 17, (R)-6-(3-(1H-tetrazol-5-yl)pyrrolo[1,2-b]pyridazin-7-yl)-N-(2-fluoro-3-hydroxy-3-methylbutyl)-4-(isopropylamino)nicotinamide]
EC50 [1, 3]: 5200 nM | IC50 ([2]; TR-FRET): 24 nM

Cc1nnc(NC[C@H]2C[C@H](Nc3cc(-c4ccc5cc(C#N)cnn45)ncc3C(=O)NC[C@@H](F)C(C)(C)O)C2)o1 [Example 694, 6-(3-cyanopyrrolo[1,2-b]pyridazin-7-yl)-N—((R)-2-fluoro-3-hydroxy-3-methylbutyl)-4-(((1r,3R)-3-(((5-methyl-1,3,4-oxadiazol-2-yl)amino)methyl)cyclobutyl)amino)nicotinamide]
EC50 [1, 3]: 102 nM | IC50 ([2]; TR-FRET (HTRF)): < 1 nM

COC(=O)NC[C@H]1C[C@H](Nc2cc(-c3ccc4cc(C#N)cnn34)ncc2C(=O)NCC(=O)C(C)(C)O)C1 [Example 815, methyl (((1r,3r)-3-((2-(3-cyanopyrrolo[1,2-b]pyridazin-7-yl)-5-((3-hydroxy-3-methyl-2-oxobutyl)carbamoyl)pyridin-4-yl)amino)cyclo-butyl)methyl)carbamate]
EC50 [1, 4]: 15 nM | IC50 ([2]; TR-FRET): < 1 nM

CC(C)(O)[C@H](F)CNC(=O)c1cnc(-c2ccc3cc(C#N)cnn23)cc1NC1CCC(C)(N2CCOCC2)CC1 (single isomer, unassigned) [Example 691]
EC50 ([1]; TNFα content): 345 nM | IC50 ([2]; TR-FRET (HTRF)): 5 nM

CNc1cc(-c2ccc3cc(C#N)cnn23)ncc1C(=O)NCC#N [Example 463, N-(cyanomethyl)-6-(3-cyanopyrrolo[1,2-b]pyridazin-7-yl)-4-(methylamino)nicotinamide]
EC50 [1, 3]: 163 nM | IC50 ([2]; TR-FRET (HTRF)): 3 nM

COc1ncc(Nc2cc(-c3ccc4cc(C#N)cnn34)ncc2C(=O)NC[C@@H](F)C(C)(C)O)cn1 [Example 590, (R)-6-(3-cyanopyrrolo[1,2-b]pyridazin-7-yl)-N-(2-fluoro-3-hydroxy-3-methylbutyl)-4-((2-methoxypyrimidin-5-yl)amino)nicotinamide]
EC50 [1, 3]: 38 nM | IC50 ([2]; TR-FRET (HTRF)): < 1 nM

CN(C)C(=O)OC12CCC(Nc3cc(-c4ccc5cc(C#N)cnn45)ncc3C(=O)NC[C@@H](F)C(C)(C)O)(CC1)CC2 [Example 411, (R)-4-((2-(3-cyano-pyrrolo[1,2-b]pyridazin-7-yl)-5-((2-fluoro-3-hydroxy-3-methylbutyl)carbamoyl)pyridin-4-yl)amino)bicyclo[2.2.2] octan-1-yl dimethylcarbamate]
EC50 [1, 3]: 62 nM | IC50 ([2]; TR-FRET (HTRF)): 2 nM

COc1ccc(Nc2cc(-c3ccc4cc(C#N)cnn34)ncc2C(=O)NC[C@@H](F)C(C)(C)O)cn1 [Example 602, (R)-6-(3-cyanopyrrolo[1,2-b]pyridazin-7-yl)-N-(2-fluoro-3-hydroxy-3-methylbutyl)-4-((6-methoxy-pyridin-3-yl)amino) nicotinamide]
EC50 [1, 3]: 70 nM | IC50 ([2]; TR-FRET (HTRF)): < 1 nM

CC(=O)NC(C)(C)CCNC(=O)c1cnc(-c2ccc3cc(C#N)cnn23)cc1NC12CCC(O)(CC1)CC2 [Example 344, N-(3-acetamido-3-methylbutyl)-6-(3-cyanopyrrolo[1,2-b]pyridazin-7-yl)-4-((4-hydroxybicyclo[2.2.2]octan-1-yl)amino) nicotinamide]
EC50 [1, 3]: 48 nM | IC50 ([2]; TR-FRET): 2 nM

Cc1cc(Nc2cc(-c3ccc4cc(C#N)cnn34)ncc2C(=O)NC[C@@H](F)C(C)(C)O)ccc1C(N)=O [Example 581, (R)-4-((4-carbamoyl-3-methylphenyl)amino)-6-(3-cyanopyrrolo[1,2-b]pyridazin-7-yl)-N-(2-fluoro-3-hydroxy-3-methylbutyl)nicotinamide]
EC50 [1, 3]: 114 nM | IC50 ([2]; TR-FRET (HTRF)): < 1 nM

CC(C)(O)[C@H](F)CNC(=O)c1cnc(-c2ccc3cc(C#N)cnn23)cc1N[C@@H]1CCOC1 [Example 194, 6-(3-cyanopyrrolo[1,2-b]pyridazin-7-yl)-N-((R)-2-fluoro-3-hydroxy-3-methylbutyl)-4-(((R)-tetrahydrofuran-3-yl)amino)nicotinamide]
EC50 [1, 3]: 48 nM | IC50 ([2]; TR-FRET): < 1 nM

CC(C)(O)[C@H](F)CNC(=O)c1cnc(-c2ccc3cc(C#N)cnn23)cc1N[C@H]1CCC[C@H]1O [Example 261, 6-(3-cyanopyrrolo[1,2-b]pyridazin-7-yl)-N-((R)-2-fluoro-3-hydroxy-3-methylbutyl)-4-(((1S,2R)-2-hydroxycyclopentyl)amino)nicotinamide]
EC50 [1, 3]: 41 nM | IC50 ([2]; TR-FRET): < 1 nM

CC(C)Nc1cc(-c2ccc3cc(C#N)cnn23)ncc1C(=O)NCCS(N)(=O)=O [Example 20, 6-(3-cyanopyrrolo[1,2-b]pyridazin-7-yl)-4-(isopropyl-amino)-N-(2-sulfamoylethyl)nicotinamide]
EC50 [1, 3]: 128 nM | IC50 ([2]; TR-FRET): 2 nM

CC(C)(O)[C@H](F)CNC(=O)c1cnc(-c2ccc3cc(C#N)cnn23)cc1NC1CC2(CCC2)C1 [Example 99, (R)-6-(3-cyanopyrrolo[1,2-b]pyridazin-7-yl)-N-(2-fluoro-3-hydroxy-3-methylbutyl)-4-(spiro[3.3]heptan-2-ylamino)nicotinamide]
EC50 [1, 3]: 130 nM | IC50 ([2]; TR-FRET): 1 nM

Cn1cncc1-c1ccc(Nc2cc(-c3ccc4cc(C#N)cnn34)ncc2C(=O)NC[C@@H](F)C(C)(C)O)cc1 [Example 210, (R)-6-(3-cyanopyrrolo[1,2-b]pyridazin-7-yl)-N-(2-fluoro-3-hydroxy-3-methylbutyl)-4-((4-(1-methyl-1H-imidazol-5-yl)phenyl)amino) nicotinamide]
EC50 [1, 3]: 39 nM | IC50 ([2]; TR-FRET): < 1 nM

CC(C)(O)[C@H](F)CNC(=O)c1cnc(-c2ccc3cc(C#N)cnn23)cc1Nc1ncc(C#N)cn1 [Example 420, (R)-4-((5-cyanopyrimidin-2-yl)amino)-6-(3-cyano-pyrrolo[1,2-b]pyridazin-7-yl)-N-(2-fluoro-3-hydroxy-3-methylbutyl)nicotinamide]
EC50 [1, 3]: 122 nM | IC50 ([2]; TR-FRET (HTRF)): 6 nM

CC(C)(O)[C@H](F)CNC(=O)c1cnc(-c2ccc3cc(C#N)cnn23)cc1Nc1ccc2nc[nH]c2c1 [Example 580, (R)-4-((1H-benzo[d]imidazol-6-yl)amino)-6-(3-cyanopyrrolo[1,2-b]pyridazin-7-yl)-N-(2-fluoro-3-hydroxy-3-methyl-butyl)nicotinamide]
EC50 [1, 3]: 69 nM | IC50 ([2]; TR-FRET (HTRF)): < 1 nM

COc1nccc(Nc2cc(-c3ccc4cc(C#N)cnn34)ncc2C(=O)NC[C@@H](F)C(C)(C)O)n1 [Example 844, (R)-6-(3-cyanopyrrolo[1,2-b]pyridazin-7-yl)-N-(2-fluoro-3-hydroxy-3-methylbutyl)-4-((2-methoxypyrimidin-4-yl)amino)nicotinamide]
EC50 [1, 4]: 70 nM | IC50 ([2]; TR-FRET): 1 nM

CC(C)Nc1cc(-c2ccc3cc(C#N)cnn23)ncc1C(=O)N[C@H]1CC[C@H](NC(=O)C2CC2)CC1 [Example 125, 6-(3-cyanopyrrolo[1,2-b]pyridazin-7-yl)-N-((1r,4r)-4-(cyclopropane-carboxamido)cyclohexyl)-4-(isopropyl-amino)nicotinamide]
EC50 [1, 3]: 114 nM | IC50 ([2]; TR-FRET): 1 nM

CNC(=O)OC[C@H](F)CNC(=O)c1cnc(-c2ccc3cc(C#N)cnn23)cc1NC12CCC(O)(CC1)CC2 [Example 743, (R)-3-(6-(3-cyano-pyrrolo[1,2-b]pyridazin-7-yl)-4-((4-hydroxy-bicyclo[2.2.2]octan-1-yl)amino)nicotin-amido)-2-fluoropropyl methylcarbamate]
EC50 [1, 3]: 54 nM | IC50 ([2]; TR-FRET (HTRF)): < 1 nM

CC(C)(O)[C@H](F)CNC(=O)c1cnc(-c2ccc3cc(C#N)cnn23)cc1N[C@@H]1C[C@H]2CC[C@@H]1O2 [Example 94, 4-(((1S,2R,4R)-7-oxa-bicyclo[2.2.1]heptan-2-yl)amino)-6-(3-cyanopyrrolo[1,2-b]pyridazin-7-yl)-N-((R)-2-fluoro-3-hydroxy-3-methylbutyl)nicotinamide]
EC50 [1, 3]: 92 nM | IC50 ([2]; TR-FRET): 1 nM

N#Cc1cnn2c(-c3cc(NC45CCC(O)(CC4)CC5)c(C(=O)NC[C@H]4C[C@@H](NC(=O)C5CC5)C4)cn3)ccc2c1 [Example 732, 6-(3-cyanopyrrolo[1,2-b]pyridazin-7-yl)-N-(((1s,3s)-3-(cyclopropane-carboxamido)cyclobutyl)methyl)-4-((4-hydroxy-bicyclo[2.2.2]octan-1-yl)amino)nicotinamide]
EC50 [1, 3]: 89 nM | IC50 ([2]; TR-FRET (HTRF)): 1 nM

CC(C)(O)[C@H](F)CNC(=O)c1cnc(-c2ccc3cc(C#N)cnn23)cc1N[C@H]1CC[C@H](N2CCOCC2)CC1 [Example 822, 6-(3-cyanopyrrolo[1,2-b]pyridazin-7-yl)-N-((R)-2-fluoro-3-hydroxy-3-methylbutyl)-4-(((1r,4R)-4-morpholinocyclohexyl)amino)nicotinamide]
EC50 [1, 4]: 73 nM | IC50 ([2]; TR-FRET): 1 nM
